A value given as a limit tells only on which side of the number the result lay.

The target in the test is T1, human leukocyte elastase (HLE) (Homo sapiens, UniProt P08246).
T1 construct: purchased Calbiochem
T1 sequence (P08246 30-247 limits assumed): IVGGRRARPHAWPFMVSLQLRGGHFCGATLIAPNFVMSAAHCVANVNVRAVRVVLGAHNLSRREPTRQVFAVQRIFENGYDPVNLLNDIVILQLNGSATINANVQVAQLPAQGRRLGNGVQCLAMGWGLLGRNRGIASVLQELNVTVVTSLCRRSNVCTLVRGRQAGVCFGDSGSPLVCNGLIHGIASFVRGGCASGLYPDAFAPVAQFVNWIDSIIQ
Kind of test: Kinetic parameters of HLE inhibition (fluorogenic substrate, steady-state KI^ss and K5/KI). In kind it is biochemical. Conditions: HLE (Calbiochem), 37° C., pH 7.4 phosphate buffer, 1% DMSO, 1% MeCN; for kinact/KI: read-out: K5 /KI (rate of formation of the HLE-inhibitor complex); for Ki: read-out: KI^ss (apparent dissociation constant of the HLE-inhibitor complex at steady state).

Description: Kinetic parameters of HLE (Calbiochem) were determined at 37° C., 0.027M pH 7.4 phosphate buffer, 1% DMSO, 1% MeCN, NaCl (I=0.15), by monitoring the release of 7-amino-4-methylcoumarin (fluorescence detection) from N-methoxysuccinyl-alanyl-prolyl-valyl-7-amido-4-methylcoumarin as the substrate, according to the equations: [formula] wherein [P], [I], [S]=product, inhibitor, and substrate concentration
Km =Michaelis constant for the enzyme substrate pair (independently determined under the same experimental conditions)

On to `CO[C@H]1C(=O)N2C(C(=O)C(C)(C)C)=C(C)C(C)(Sc3nnnn3C)S(=O)(=O)[C@H]12` (stereo partly drawn) [Compound 5, 4-tert-Butylcarbonyl-2,3-dimethyl-7α-methoxy-2-(1-methyl-1,2,3,4-tetrazol-5-yl)thio-3-cephem 1,1-dioxide], for which the kinact/KI amounted to 570000 M⁻¹ s⁻¹ and the Ki came to 1.9 nM.
On to `CO[C@H]1C(=O)N2C(C(=O)C(C)(C)C)=C(C)C(Cc3ccc([N+](=O)[O-])cc3)(Sc3nnnn3C)S(=O)(=O)[C@H]12` (stereo partly drawn) [Compound 6, 4-tert-Butylcarbonyl-7α-methoxy-3-methyl-2-(1-methyl-1,2,3,4-tetrazol-5-yl)thio-2-(4-nitrobenzyl)-3-cephem 1,1-dioxide], for which the kinact/KI came out at 600000 M⁻¹ s⁻¹ and the Ki came to 1 nM.
With `C=CCC1(Sc2nnnn2C)C(C)=C(C(=O)C(C)(C)C)N2C(=O)[C@H](OC)[C@H]2S1(=O)=O` (stereo partly drawn) [Compound 7, 2-Allyl-4-tert-butylcarbonyl-7α-methoxy-3-methyl-2-(1-methyl-1,2,3,4-tetrazol-5-yl)thio-3-cephem 1,1-dioxide], the kinact/KI is 360000 M⁻¹ s⁻¹ and the Ki came out at 3 nM.
The corresponding values for `CO[C@H]1C(=O)N2C(C(=O)C(C)(C)C)=C(C)C(Cc3ccccc3)(Sc3nnnn3C)S(=O)(=O)[C@H]12` (stereo partly drawn) [Compound 10, 2-Benzyl-4-tert-butylcarbonyl-7α-methoxy-3-methyl-2-(1-methyl-1,2,3,4-tetrazol-5-yl)thio-3-cephem 1,1-dioxide] are 110000 M⁻¹ s⁻¹ and 4 nM.
With `CO[C@H]1C(=O)N2C(C(=O)C(C)(C)C)=C(C)C(C)(Sc3nc(=O)c(OC(c4ccccc4)c4ccccc4)nn3C)S(=O)(=O)[C@H]12` (stereo partly drawn) [Compound 11, 2-(6-Benzhydryloxy-2-methyl-5-oxo-2,5-dihydro-1,2,4-triazin-3-yl)thio-4-tert-butylcarbonyl-2,3-dimethyl-7α-methoxy-3-cephem 1,1-dioxide], the kinact/KI came to 1.3e+07 M⁻¹ s⁻¹ and the Ki was less than 1 nM.
Consider `CO[C@H]1C(=O)N2C(C(=O)C(C)(C)C)=C(C)C(C)(Sc3nc(=O)c(O)nn3C)S(=O)(=O)[C@H]12` (stereo partly drawn) [Compound 12, 2-(2,5-Dihydro-6-hydroxy-2-methyl-5-oxo-1,2,4-triazin-3-yl)thio-4-tert-butylcarbonyl-2,3-dimethyl-7α-methoxy-3-cephem 1,1-dioxide], for which the kinact/KI stood at 37000 M⁻¹ s⁻¹ and the Ki was determined as 30 nM.
For the molecule `COc1nn(C)c(SC2(C)C(C)=C(C(=O)C(C)(C)C)N3C(=O)[C@H](OC)[C@H]3S2(=O)=O)nc1=O` (stereo partly drawn) [Compound 15, 2-(2,5-Dihydro-6-methoxy-2-methyl-5-oxo-1,2,4-triazin-3-yl)thio-4-tert-butylcarbonyl-2,3-dimethyl-7α-methoxy-3-cephem 1,1-dioxide], the kinact/KI was found to be 1.4e+06 M⁻¹ s⁻¹.
For `CO[C@H]1C(=O)N2C(C(=O)C(C)(C)C)=C(C)C(Cc3ccccc3)(Sc3nc(=O)c(O)nn3C)S(=O)(=O)[C@H]12` (stereo partly drawn) [Compound 18, 2-Benzyl-2-(2,5-dihydro-6-hydroxy-2-methyl-5-oxo-1,2,4-triazin-3-yl)thio-4-tert-butylcarbonyl-7α-methoxy-3-methyl-3-cephem 1,1-dioxide], the kinact/KI came to 14000 M⁻¹ s⁻¹ and the Ki was 16 nM.
On to `C=CCC1(Sc2nc(=O)c(OC(c3ccccc3)c3ccccc3)nn2C)C(C)=C(C(=O)C(C)(C)C)N2C(=O)[C@H](OC)[C@H]2S1(=O)=O` (stereo partly drawn) [Compound 24, 2-allyl-2-(6-benzhydryloxy-2,5-dihydro-2-methyl-5-oxo-1,2,4-triazin-3-yl)thio-4-tert-butylcarbonyl-7α-methoxy-3-methyl-3-cephem 1,1-dioxide], for which the kinact/KI was determined as 93000 M⁻¹ s⁻¹ and the Ki turned out to be 8 nM.
As for `CO[C@H]1C(=O)N2C(C(=O)C(C)(C)C)=C(CSc3nnnn3C)C(C)(Sc3nnnn3C)S(=O)(=O)[C@H]12` (stereo partly drawn) [Compound 28, 4-tert-Butylcarbonyl-7α-methoxy-2-methyl-2-(1-methyl-1,2,3,4-tetrazol-5-yl)thio-3-(1-methyl-1,2,3,4-tetrazol-5-yl)thiomethyl-3-cephem 1,1-dioxide], the kinact/KI worked out at 1.4e+06 M⁻¹ s⁻¹ and the Ki came out at 3 nM.
For `CO[C@H]1C(=O)N2C(C(=O)C(C)(C)C)=C(C)C(Cc3ccc(C(=O)OC(c4ccccc4)c4ccccc4)cc3)(Sc3nnnn3C)S(=O)(=O)[C@H]12` (stereo partly drawn) [Compound 30, 2-(4-benzhydryloxycarbonylbenzyl)-4-tert-Butylcarbonyl-7α-methoxy-3-methyl-2-(1-methyl-1,2,3,4-tetrazol-5-yl)thio-3-cephem1,1-dioxide], the kinact/KI stood at 77000 M⁻¹ s⁻¹ and the Ki was determined as 1 nM.
Take `C=CCOC(=O)c1ccc(CC2(Sc3nnnn3C)C(C)=C(C(=O)C(C)(C)C)N3C(=O)[C@H](OC)[C@H]3S2(=O)=O)cc1` (stereo partly drawn) [Compound 31, 2-(4-allyloxycarbonylbenzyl)-4-tert-butylcarbonyl-7α-methoxy-3-methyl-2-(1-methyl-1,2,3,4-tetrazol-5-yl)thio-3-cephem 1,1-dioxide]: the kinact/KI was determined as 560000 M⁻¹ s⁻¹ and the Ki is 1.3 nM.
As for `CO[C@H]1C(=O)N2C(C(=O)C(C)(C)C)=C(C)C(Cc3ccc(C(=O)O)cc3)(Sc3nnnn3C)S(=O)(=O)[C@H]12` (stereo partly drawn) [Compound 32, 4-tert-Butylcarbonyl-2-(4-carboxybenzyl)-7α-methoxy-3-methyl-2-(1-methyl-1,2,3,4-tetrazol-5-yl)thio-3-cephem 1,1-dioxide], the kinact/KI was found to be 200000 M⁻¹ s⁻¹ and the Ki amounted to 7 nM.
Consider `CO[C@H]1C(=O)N2C(C(=O)C(C)(C)C)=C(C)C(Cc3ccccc3)(Sc3nc(=O)c(OCc4ccccc4)nn3C)S(=O)(=O)[C@H]12` (stereo partly drawn) [Compound 46, 2-Benzyl-2-(6-benzyloxy-2,5-dihydro-2-methyl-5-oxo-1,2,4-triazin-3-yl)thio-4-tert-butylcarbonyl-7α-methoxy-3-methyl-3-cephem 1,1-dioxide], for which the kinact/KI stood at 160000 M⁻¹ s⁻¹ and the Ki was determined as 4 nM.
In the case of `CO[C@H]1C(=O)N2C(C(=O)C(C)(C)C)=C(CSc3nnnn3C)C(Sc3nnnn3C)S(=O)(=O)C12` (some centres unmarked) [Ref. 2, reference compound], the Ki is 93 nM.
As to `CO[C@H]1C(=O)N2C(C(=O)N3CCCC3)=C(CSc3nc(=O)c(O)nn3C)CS(=O)(=O)[C@H]12` [Ref. 3, reference compound], the kinact/KI turned out to be 1500 M⁻¹ s⁻¹.

Values taken from patent publication US5580865A, “2,2-disubstituted cephem sulphones” (Farmitalia Carlo Erba S.r.l., priority 1992, dated 1996).
